Data on two molecules can be found in article PMC6016474, “Structural and functional determination of homologs of the Mycobacterium tuberculosis N-acetylglucosamine-6-phosphate deacetylase (NagA)” (The Journal of Biological Chemistry, 2018).

One assay has as its target T1, MMNagA (Mycobacterium marinum, UniProt B2HDT2).
T1 construct: gene nagA; full-length from gDNA, N-terminal His6 tag (pET28a, NdeI/HindIII), E. coli BL21(DE3) with Mtb GroES chaperone
The note with it: read-out: MST Kd; binder.

The target of the next assay is T2, MSNagA (Mycolicibacterium smegmatis, UniProt A0QU89, D267A).
T2 construct: gene nagA; full-length, 385 residues, N-terminal His6 tag; expressed in M. smegmatis mc2 4517 (pYUB1062) for wild-type rows, in E. coli (pET28a) for D267A
T2 sequence (A0QU89 1-385 D267A): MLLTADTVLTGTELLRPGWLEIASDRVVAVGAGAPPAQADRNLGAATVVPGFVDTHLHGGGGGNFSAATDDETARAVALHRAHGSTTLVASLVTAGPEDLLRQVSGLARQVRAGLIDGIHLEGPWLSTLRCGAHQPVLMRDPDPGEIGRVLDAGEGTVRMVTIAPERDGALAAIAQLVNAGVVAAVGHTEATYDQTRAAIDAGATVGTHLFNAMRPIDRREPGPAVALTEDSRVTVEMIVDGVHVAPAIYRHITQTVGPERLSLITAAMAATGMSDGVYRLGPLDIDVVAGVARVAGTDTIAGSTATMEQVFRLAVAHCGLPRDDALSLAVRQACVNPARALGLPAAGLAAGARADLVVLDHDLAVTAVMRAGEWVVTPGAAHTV
Briefly: X-ray co-crystal structure, […] Å. It counts as binding. As to conditions: active site of chain A at dimer interface, Zn and Cd modelled, ligand occupancy 0.75.

T1 sequence (B2HDT2 entry or part of it): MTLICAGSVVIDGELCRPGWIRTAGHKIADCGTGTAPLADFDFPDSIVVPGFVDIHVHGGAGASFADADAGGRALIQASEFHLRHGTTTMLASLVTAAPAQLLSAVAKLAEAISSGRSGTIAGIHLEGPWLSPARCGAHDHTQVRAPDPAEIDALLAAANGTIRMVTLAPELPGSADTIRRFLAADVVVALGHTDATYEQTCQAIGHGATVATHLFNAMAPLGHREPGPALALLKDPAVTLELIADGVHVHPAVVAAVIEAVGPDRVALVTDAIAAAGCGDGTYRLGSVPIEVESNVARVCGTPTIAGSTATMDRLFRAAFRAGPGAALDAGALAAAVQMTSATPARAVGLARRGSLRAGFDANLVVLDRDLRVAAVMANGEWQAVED

As a reminder, the Kd is the free concentration of one partner at which half of the binding sites on the other are occupied at equilibrium, for simple one-to-one binding. Regarding `CC(=O)N[C@@H]1C(O)O[C@H](COP(=O)(O)O)[C@@H](O)[C@@H]1O` (stereo partly drawn) [ManNAc6P], on MMNagA, the Kd was found to be 3800 ± 300 µM.
Regarding `CC(=O)N[C@H]1C(O)O[C@H](COP(=O)(O)O)[C@@H](O)[C@@H]1O` (stereo partly drawn) [GlcNAc6P], at MSNagA, the “X-ray co-crystal structure, 2.0 Å” value is recorded as 6FV4 for the GlcNAc6P-MSNagA co-crystal structure. At MMNagA, the Kd came to 1200 ± 50 µM.
